Where a name gives a salt, the structure may show the parent alone.

This is an account of results in US7205295B2, “Benzoxazin-3-ones and derivatives thereof as therapeutic agents” (Warner-Lambert Company LLC, priority 2002, dated 2007).

The target in the assay is T1, PI3Kγ (p101/p110γ protein) (Homo sapiens, UniProt P48736).
T1 construct: HA; made in house; host or cells: Spodoptera frugiperda (Sf9) cells, baculovirus co-infection
T1 sequence (P48736 whole entry, species assumed): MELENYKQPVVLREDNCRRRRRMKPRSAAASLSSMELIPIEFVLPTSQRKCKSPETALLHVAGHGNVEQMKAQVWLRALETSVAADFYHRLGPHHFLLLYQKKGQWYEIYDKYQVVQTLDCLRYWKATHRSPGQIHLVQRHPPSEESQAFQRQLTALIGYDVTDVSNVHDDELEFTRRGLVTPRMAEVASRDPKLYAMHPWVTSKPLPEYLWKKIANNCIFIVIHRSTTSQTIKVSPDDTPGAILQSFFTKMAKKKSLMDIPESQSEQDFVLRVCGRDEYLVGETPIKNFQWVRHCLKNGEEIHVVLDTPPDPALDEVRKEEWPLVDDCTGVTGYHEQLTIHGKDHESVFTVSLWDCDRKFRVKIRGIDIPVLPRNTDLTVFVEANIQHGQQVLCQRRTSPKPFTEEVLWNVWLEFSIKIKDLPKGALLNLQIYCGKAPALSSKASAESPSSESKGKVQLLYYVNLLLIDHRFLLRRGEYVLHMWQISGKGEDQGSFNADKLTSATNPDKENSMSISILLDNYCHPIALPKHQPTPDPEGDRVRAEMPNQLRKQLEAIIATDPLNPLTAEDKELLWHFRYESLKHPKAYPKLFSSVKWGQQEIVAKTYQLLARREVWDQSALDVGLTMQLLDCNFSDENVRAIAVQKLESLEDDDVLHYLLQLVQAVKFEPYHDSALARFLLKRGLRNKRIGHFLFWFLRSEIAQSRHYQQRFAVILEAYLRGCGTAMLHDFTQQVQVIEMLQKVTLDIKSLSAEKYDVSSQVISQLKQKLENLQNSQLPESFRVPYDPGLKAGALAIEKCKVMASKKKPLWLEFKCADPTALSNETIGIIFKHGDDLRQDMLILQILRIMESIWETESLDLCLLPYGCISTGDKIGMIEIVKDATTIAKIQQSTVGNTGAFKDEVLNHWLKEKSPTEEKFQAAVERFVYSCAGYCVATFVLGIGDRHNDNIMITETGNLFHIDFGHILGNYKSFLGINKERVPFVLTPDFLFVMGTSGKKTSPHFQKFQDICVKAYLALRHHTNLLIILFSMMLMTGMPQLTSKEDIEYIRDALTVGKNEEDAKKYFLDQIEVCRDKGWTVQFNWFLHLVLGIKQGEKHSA
T1 sequence (Q8WYR1 whole entry partner, species assumed): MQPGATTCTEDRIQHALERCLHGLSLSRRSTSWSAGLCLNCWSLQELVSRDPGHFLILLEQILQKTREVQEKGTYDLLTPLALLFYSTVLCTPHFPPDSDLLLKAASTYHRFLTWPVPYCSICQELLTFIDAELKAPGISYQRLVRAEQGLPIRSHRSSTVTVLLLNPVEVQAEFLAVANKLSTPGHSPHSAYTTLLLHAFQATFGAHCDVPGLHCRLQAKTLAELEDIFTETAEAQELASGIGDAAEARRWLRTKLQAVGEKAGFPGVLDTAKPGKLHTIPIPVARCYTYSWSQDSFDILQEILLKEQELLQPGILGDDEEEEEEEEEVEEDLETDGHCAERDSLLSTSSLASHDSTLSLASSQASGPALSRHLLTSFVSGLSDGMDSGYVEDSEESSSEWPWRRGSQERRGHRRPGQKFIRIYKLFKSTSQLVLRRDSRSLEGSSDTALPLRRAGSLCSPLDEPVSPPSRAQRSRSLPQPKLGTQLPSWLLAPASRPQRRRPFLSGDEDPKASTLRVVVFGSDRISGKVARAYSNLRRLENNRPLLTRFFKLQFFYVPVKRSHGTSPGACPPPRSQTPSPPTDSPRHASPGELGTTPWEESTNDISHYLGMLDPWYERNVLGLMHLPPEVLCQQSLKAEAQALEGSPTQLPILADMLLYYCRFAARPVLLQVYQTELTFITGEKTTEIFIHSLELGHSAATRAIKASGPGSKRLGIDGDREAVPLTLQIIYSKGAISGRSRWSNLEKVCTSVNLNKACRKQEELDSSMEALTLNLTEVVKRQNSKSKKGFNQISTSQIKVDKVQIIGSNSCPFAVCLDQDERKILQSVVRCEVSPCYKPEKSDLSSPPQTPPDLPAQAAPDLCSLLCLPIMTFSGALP
Kind of assay: PI3Kγ In Vitro Kinase Assay. The class given is biochemical. The settings on record: purified recombinant p101/p110γ with G protein β1/γ2 subunits; 20 μM ATP, 25 μM PIP2; 20 minutes at room temperature. In outline:
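Sf9-expressed, purified human p101/p110γ (2.7 nM) was activated by Gβ1/γ2 (57.7 nM) and reacted with 20 μM ATP plus [γ-32P]ATP on PIP2 (25 μM)/PE (300 μM) micelles with 10 mM MgCl2 in HEPES buffer. Reactions ran 20 min at room temperature. Filter-captured radiolabeled PIP3 was counted by scintillation.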
One may read the IC50 as the midpoint of a concentration-inhibition curve. On to `NC(=O)c1ccc(CN2C(=O)COc3ccc(C=C4SC(=S)NC4=O)cc32)cc1` [Example 176, 4-[3-Oxo-6-(4-oxo-2-thioxo-thiazolidin-5-ylidenemethyl)-2,3-dihydro-1,4-benzoxazin-4-ylmethyl]-benzamide], for which the concentration for half-maximal inhibition (IC50) came to 59 nM.

Regarding `CC(=O)Nc1ccc(CN2C(=O)COc3ccc(C=C4SC(=S)NC4=O)cc32)cc1` [Example 177, N-{4-[3-Oxo-6-(4-oxo-2-thioxo-thiazolidin-5-ylidenemethyl)-2,3-dihydro-1,4-benzoxazin-4-ylmethyl]-phenyl}-acetamide], the IC50 worked out at 25 nM.

Take `O=C1NC(=S)SC1=Cc1ccc2c(c1)N(Cc1ccc(Cl)c(Cl)c1)C(=O)CO2` [Example 178, 4-(3,4-Dichloro-benzyl)-6-(4-oxo-2-thioxo-thiazolidin-5-ylidenemethyl)-4H-1,4-benzoxazin-3-one]: the IC50 was found to be 4 nM. As for `O=C1NC(=S)SC1=Cc1ccc2c(c1)N(Cc1ccc(Cl)cc1)C(=O)CO2` [Example 179, 4-(4-Chloro-benzyl)-6-(4-oxo-2-thioxo-thiazolidin-5-ylidenemethyl)-4H-1,4-benzoxazin-3-one], the concentration for half-maximal inhibition (IC50) was 7 nM. For the compound `O=C1NC(=S)SC1=Cc1ccc2c(c1)N(Cc1ccccc1)C(=O)CO2` [Example 180, 4-Benzyl-6-(4-oxo-2-thioxo-thiazolidin-5-ylidenemethyl)-4H-1,4-benzoxazin-3-one], the IC50 came out at 9 nM. For `Cc1cc(C)cc(CN2C(=O)COc3ccc(C=C4SC(=S)NC4=O)cc32)c1` [Example 181, 4-(3,5-Dimethyl-benzyl)-6-(4-oxo-2-thioxo-thiazolidin-5-ylidenemethyl)-4H-1,4-benzoxazin-3-one] the value was 10 nM. Next, `COc1ccc(CN2C(=O)COc3ccc(C=C4SC(=S)NC4=O)cc32)cc1` [Example 182, 4-(4-Methoxy-benzyl)-6-(4-oxo-2-thioxo-thiazolidin-5-ylidenemethyl)-4H-1,4-benzoxazin-3-one]: 165 nM; `O=C1NC(=S)SC1=Cc1ccc2c(c1)N(Cc1ccc([N+](=O)[O-])cc1)C(=O)CO2` [Example 183, 4-(4-Nitro-benzyl)-6-(4-oxo-2-thioxo-thiazolidin-5-ylidenemethyl)-4H-1,4-benzoxazin-3-one]: 21 nM; `CC(C)(C)c1ccc(CN2C(=O)COc3ccc(C=C4SC(=S)NC4=O)cc32)cc1` [Example 184, 4-(4-tert-Butyl-benzyl)-6-(4-oxo-2-thioxo-thiazolidin-5-ylidenemethyl)-4H-1,4-benzoxazin-3-one]: 3 nM. Next, `O=C1NC(=S)SC1=Cc1ccc2c(c1)N(Cc1cc(C(F)(F)F)cc(C(F)(F)F)c1)C(=O)CO2` [Example 185, 4-(3,5-Bis-trifluoromethyl-benzyl)-6-(4-oxo-2-thioxo-thiazolidin-5-ylidenemethyl)-4H-1,4-benzoxazin-3-one]: 102 nM. Regarding `O=C1NC(=S)SC1=Cc1ccc2c(c1)N(CC(=O)c1ccc3c(c1)oc1ccccc13)C(=O)CO2` [Example 186, 4-(2-Dibenzofuran-3-yl-2-oxo-ethyl)-6-(4-oxo-2-thioxo-thiazolidin-5-ylidenemethyl)-4H-1,4-benzoxazin-3-one], the IC50 was determined as 315 nM. Next, `O=C1NC(=S)SC1=Cc1ccc2c(c1)N(Cc1cc(F)cc(C(F)(F)F)c1)C(=O)CO2` [Example 187, 4-(3-Fluoro-5-trifluoromethyl-benzyl)-6-(4-oxo-2-thioxo-thiazolidin-5-ylidenemethyl)-4H-1,4-benzoxazin-3-one]: 98 nM; `O=C1NC(=S)SC1=Cc1ccc2c(c1)N(Cc1ccc3ccccc3c1)C(=O)CO2` [Example 188, 4-Naphthalen-2-ylmethyl-6-(4-oxo-2-thioxo-thiazolidin-5-ylidenemethyl)-4H-1,4-benzoxazin-3-one]: 20 nM; `O=C1NC(=S)SC1=Cc1cnc2c(c1)N(Cc1ccccc1)C(=O)CO2` [Example 189, 1-Benzyl-7-(4-oxo-2-thioxo-thiazolidin-5-ylidenemethyl)-1H-pyrido[2,3-b][1,4]oxazin-2-one; compound with ethane-1,2-diamine]: 640 nM. Next, `CN1CC(=O)Nc2cc(C=C3SC(=S)NC3=O)ccc21` [Example 190, 4-Methyl-7-(4-oxo-2-thioxo-thiazolidin-5-ylidenemethyl)-3,4-dihydro-1H-quinoxalin-2-one]: 240 nM; `O=C1NC(=S)OC1=Cc1ccc2c(c1)N(Cc1ccc(Cl)c(Cl)c1)C(=O)CO2` [Example 191, 4-(3,4-Dichloro-benzyl)-6-(4-oxo-2-thioxo-oxazolidin-5-ylidenemethyl)-4H-1,4-benzoxazin-3-one]: 7 nM.

Turning to `CS(=O)(=O)c1ccc(CN2C(=O)COc3ccc(C=C4SC(=S)NC4=O)cc32)cc1` [Example 192, 4-(4-Methanesulfonyl-benzyl)-6-(4-oxo-2-thioxo-thiazolidin-5-ylidenemethyl)-4H-1,4-benzoxazin-3-one], the IC50 turned out to be 8 nM. Take `CS(=O)(=O)c1ccc(CN2C(=O)COc3ccc(C=C4SC(=S)NC4=O)cc32)cc1` [Example 193, 4-(4-Methanesulfonyl-benzyl)-6-(4-oxo-2-thioxo-thiazolidin-5-ylidenemethyl)-4H-1,4-benzoxazin-3-one, Potassium Salt]: the IC50 was determined as 6 nM. Next, `O=C1NC(=S)SC1=Cc1ccc2c(c1)N(Cc1ccc(Cl)c(C(F)(F)F)c1)C(=O)CO2` [Example 194, 4-(4-Chloro-3-trifluoromethylbenzyl)-6-(4-oxo-2-thioxo-thiazolidin-5-ylidenemethyl)-4H-1,4-benzoxazin-3-one, Potassium Salt]: 6 nM; `O=C1COc2ncc(C=C3SC(=S)NC3=O)cc2N1` [Example 195, 7-(4-Oxo-2-thioxo-thiazolidin-5-ylidenemethyl)-1H-pyrido[2,3-b][1,4]oxazin-2-one]: 1910 nM; `O=C1NC(=S)OC1=Cc1ccc2c(c1)N(Cc1ccc(Cl)c(C(F)(F)F)c1)C(=O)CO2` [Example 196, 4-(4-Chloro-3-trifluoromethyl-benzyl)-6-(4-oxo-2-thioxo-oxazolidin-5-ylidenemethyl)-4H-1,4-benzoxazin-3-one]: 26 nM.

Take `CN1CC(=O)N(Cc2ccccc2)c2cc(C=C3SC(=S)NC3=O)ccc21` [Example 197, 1-Benzyl-4-methyl-7-(4-oxo-2-thioxo-thiazolidin-5-ylidenemethyl)-3,4-dihydro-1H-quinoxalin-2-one]: the IC50 came to 390 nM. Next, `O=C1NC(=S)SC1=Cc1ccc2c(c1)N(Cc1ccc(Cl)c(Cl)c1)C(=O)CS2` [Example 198, 4-(3,4-Dichloro-benzyl)-6-(4-oxo-2-thioxo-thiazolidin-5-ylidenemethyl)-4H-1,4-benzothiazin-3-one]: 6 nM; `O=C1NC(=S)OC1=Cc1ccc2c(c1)N(Cc1ccc(Cl)c(Cl)c1)C(=O)CS2` [Example 199, 4-(3,4-Dichlorobenzyl)-6-(4-oxo-2-thioxo-oxazolidin-5-ylidenemethyl)-4H-benzo[1,4]thiazin-3-one]: 9 nM; `O=C1COc2ccc(C=C3NC(=S)NC3=O)cc2N1` [Example 200, 6-(5-Oxo-2-thioxo-imidazolidin-4-ylidenemethyl)-4H-benzo[1,4]oxazin-3-one]: 3640 nM.
